Here are results for two compounds from PMC5563081, “Modulating Protein-Protein Interactions of the Mitotic Polo-like Kinases to Target Mutant KRAS” (Cell Chemical Biology, 2017).

The target in one experiment is PLK1 PBD (Homo sapiens, UniProt P53350). Briefly: Fluorescence polarisation (FP) assay, PLK1 PBD. Set-up: PLK1 PBD (aa345-603) 84nM; GST (N, cleaved yes); made in house; host or cells: E. coli C41. In kind it is binding. The procedure:
Final concentrations of assay components used in binding assays were as follows: TAMRA-labelled consensus PLK1 PBD binding phosphopeptide, 5-TAMRA-MAGPMQS(pThreonine)PLMGAKK-acid 10nM; PLK1 PBD (aa345-603) 84nM (2.5ng/μl). Assays were carried out in PBS (pH 7.4) plus 0.03% tween. DMSO controls were run alongside all experimental compounds and % inhibition normalised to these controls. Compounds were titrated 2 fold from a top concentration of 250μM giving a maximum final concentration of DMSO in the assay of 0.25%; however the assay can tolerate DMSO up to 5%. Compound and PBD protein were incubated together at 22°C for 1 hour prior to addition of the TAMRA labelled binding phosphopeptide. The total assay volume per well was 45μl. All experiments were performed in NBS black 384-well microtiter plates (Corning). Fluorescence Polarisation (FP) was read using a BMG PheraStar plate reader with a 540/590/590nm FP module and unbound 10nm TAMRA-labelled peptide set to a FP value of 35mP.
For orientation: Polarisation of emitted light reports the rotation of a fluorescent probe.

In experiment [1] the test system is kinase catalytic domains of PLK1, PLK2, PLK3, PLK4 and 51 other protein kinases. Briefly: DiscoverX KINOMEscan panel of 55 kinases (statements in words). In kind it is binding, human. Conditions: cut-off <35% of control. The protocol: A panel of 55 proteins (comprising 51 human kinases structurally or functionally related to the PLKs, plus the kinase catalytic domains of PLK1, PLK2, PLK3 and PLK4) were selected for testing by DiscoverX using the KINOMEscan assay platform. Compounds were supplied as 40x DMSO stocks and were tested at a final concentration of 50μM for Poloppin and 5μM for Poloppin-II. Binding interactions were reported as percentage of control where lower numbers indicate stronger binding. A cut-off of <35% was applied to report significant binding.

The subject of the next experiment is Panc-1. Briefly: Cell viability (SRB), Panc-1. Conditions: Homo sapiens, PANC-1, 72 h; for GI50: read-out: Abs GI50. In kind it is cell-based, human. The procedure: SW48 Parental, SW48 G12D, Panc-1, HPAF-II, Panc 02.03 and Panc 05.04 cell lines were seeded overnight at 5000 cells per well in a 96 well plate in recommended media (ATCC). Compounds were added the following day and viability was measured at 72h using the sulforhodamine B (SRB) colorimetric assay as follows. Cells were fixed by replacing media with 1% v/v Trichloroacetic Acid (TCA) (Sigma-Aldrich) at 4°C and incubated for 1h also at 4°C. Wells were washed thoroughly with copious amounts of deionised water before staining with Sulforhodamine B (SRB) (Sigma-Aldrich) solution (0.057% w/v in 1% v/v Acetic Acid (VWR)) for 30 min. Stain was aspirated and wells washed with several changes of 1% v/v Acetic Acid until unbound stain was removed, before air-drying. Bound stain was solubilized with 100μl / well 10mM Tris (pH 8.0) (Trizma Base (121.1) Sigma-Aldrich) with agitation for 10 min. Fluorescence intensity was recorded at Ex540nm / Em590nm using a BMG Pherastar Plus plate reader ([Vichai and Kirtikara, 2006]).
Pancreatic organoids were extracted and cultured as detailed above ([Boj et al., 2015]). In brief, pancreatic organoids were seeded at 600 cells per well in a 96 well plate and allowed to grow for 7 days with media replenishment on the 3rd day. Full-grown organoids were then treated with compounds for 72h and viability determined using CellTitre Glo 3D assay (Promega). For viability assays with c-MET siRNA, cells were reverse transfected in a 6 cm dish using Dharmafect 1 (GE Dharmacon) per manufacturer’s instructions. On the following day, cells were trypsinised and plated onto 96 well plates or 6 well plates. The 96 well plates were treated with a dose range of compounds or DMSO, and viability was determined via SRB colorimetric assay. Cells in the 6 well plates were collected at the end of experiment to corroborate knockdown of c-MET by Western blotting.
Cells were reverse-transfected with 50nM (SW48 parental, SW48 KRAS G12D and Panc-1) or 25nM (HeLa Flp-In T-REx parental cells) siRNA using Dharmafect (GE Dharmacon) as manufacturer’s recommendations. Where transfected cells were subsequently treated with compounds, the cells were allowed to settle overnight and then treated with compound at the indicated concentration the following day. Viability was assessed after 72 hrs, with the SRB colorimetric assay. Knockdown efficiencies were determined by Western blot or RT-qPCR. Oligos against the following target sequences were used. c-MET (Qiagen): […], […], […]. PLK1 (Qiagen): […]. PLK2 (SMARTpool; Dharmacon): ACACAGAAGGAGAACGAUA, CAUCAAUGAGGAUAGGAUA, CUGCCUAGUGUUACUGAUA, ACAAAGUCUACGCCGCAAA. PLK3 (SMARTpool; Dharmacon): GCGAGAAGAUCCUAAAUGA, GCAAGUGGGUUGACUACUC, GCACAUCCGUUGGCCAUCA, GACCUCAAGUUGGGAAAUU. PLK4 (Qiagen): […].

In experiment [2] the test system is HCT116 (KRAS G13D) xenografts. Briefly: Xenograft study, tumour volume. In kind it is in vivo, mouse. The following applies: for Group Mean at Day 15 (tumour volume): HCT116 xenograft, vehicle 778. The procedure:
Male athymic mice were purchased from Harlan (UK) and acclimatised for 7 days prior to study commencement. Animals were housed in IVC cages (5 per cage) with individual mice identified by tail marking. All animals were allowed free access to a standard certified commercial diet and sanitised water during the study. The holding room was maintained under standard conditions: 20-24°C, 40-70% humidity and a 12h light/dark cycle. All experiments were performed under approved ethical and procedural guidelines.
Tumours were established by sub-cutaneous implantation of 2 x 10^6 HCT116 cells suspended in 50% Matrigel into the flanks of a cohort of mice. When a sufficient number of mice had developed tumours of approximately 100mm3, they were randomly assigned to three groups: Vehicle, 50mg/kg Poloppin-II or 200mg/kg Poloppin-II, with 10 mice per group. Mice were treated orally according to their treatment group once every three days. Tumour volume was measured three times per week with calipers. Body weight was measured three times per week. In addition to mice assigned to tumour volume efficacy arm of the study, 16 mice with established HCT116 xenografts were assigned to either Vehicle or 200mg/kg oral dosing groups, with 8 mice per group. 24 hours after a single dose, mice were euthanised, tumours removed, snap frozen and 30-50microgram of lysates were analysed by Western blotting on 4-12% Bis-Tris acrylamide gels, and transferred using the Invitrogen iBlot dry system. Phospho-Histone H3 was detected using Abcam antibody ab5176, beta-actin with Sigma antibody a5316. […] HRP was visualised with ECL-Plus (GE Healthcare).

“And” between values parts separate entries of the source, which are not always exact repeats. Identical values can stand only once. Like-named read-outs stand apart in the source and are kept apart here.

Sequence of PLK1 PBD (P53350 345-603): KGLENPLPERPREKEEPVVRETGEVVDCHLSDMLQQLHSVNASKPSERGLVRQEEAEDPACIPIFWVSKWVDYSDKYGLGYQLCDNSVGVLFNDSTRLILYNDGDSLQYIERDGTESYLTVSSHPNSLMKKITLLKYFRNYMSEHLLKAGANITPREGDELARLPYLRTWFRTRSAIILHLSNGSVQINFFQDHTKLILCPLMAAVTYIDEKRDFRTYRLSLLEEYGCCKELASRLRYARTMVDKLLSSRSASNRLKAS

With `O=C(O)CCc1ccc(-c2ccc(Br)cc2)n1-c1ccccc1C(F)(F)F` [Poloppin], the IC50 (in general, the point on the concentration scale where inhibition reaches its midpoint) on PLK1 PBD (IC50, binding of TAMRA-labeled phosphopeptide to PLK1 PBD) was 26.9 µM. Also, in experiment [1] (Poloppin at 50μM), the “binding to 51 other protein kinases” value is given as “No significant binding” and the “binding to the kinase catalytic domains of PLK1, PLK2, PLK3, PLK4” value is “does not bind”. In the experiment on Panc-1, the GI50 (usually the concentration at which growth is held to half of that of the control) was found to be 33.4 µM. Besides, the EC50 (in general, the concentration that produces a half-maximal response) with Panc-1 (read-out: EC50, % survival, Panc-1, All Stars control siRNA, 72 h) came out at 40.4 ± 1.03 µM. Besides, the EC50 with Panc-1 (read-out: EC50, % survival, Panc-1, siMET, 72 h) was found to be 16.8 ± 1.03 µM.
With `CN(C)CCNC(=O)c1ccc(-c2ccc(-c3ccc(Cl)cc3)n2-c2ccccc2C(F)(F)F)cc1` [Poloppin-II], the concentration for half-maximal inhibition (IC50) on PLK1 PBD (read-out: IC50, binding of TAMRA-labeled phosphopeptide to PLK1 PBD) was 40.9 µM and 41 µM. The “growth of xenografted tumors” value in experiment [2] (50 mg/kg oral, HCT116 KRAS G13D) is given as “reduced the growth of xenografted tumors”. The Group Mean at Day 15 (tumour volume) worked out at 415 mm³ in experiment [2] (50mg/kg oral every three days) and 371 mm³ in experiment [2] (200mg/kg oral, treatment suspended after seven days). The “binding to the kinase catalytic domains of PLK1–4, or to 51 other related kinases” value in experiment [1] (Poloppin-II at 5 μM) was “no binding”. In addition, the GI50 in the experiment on Panc-1 (Panc-1, individual compound, 72 hr, Figure 7G) amounted to 0.314 µM.
